What all share (assay type): cell-based, Human
Assay [1] concerns HCC827. The experiment in a line: CCK-8 proliferation, HCC827. The following applies: read-out: Inhibitory activity (IC50) on tumor cell proliferation, HCC827. Here is the method:
(§1) The tumor cells used herein were cultured in a cell culture medium listed in table A1 at 37°C in an incubator with 5% CO2. Prior to experimentation, all cell lines used were correctly identified by STR profiling, and tested negative for mycoplasma contamination using a mycoplasma detection kit through routine screenings. Table A1. Tumor cells and cell culture medium used in the present disclosure
(§2) IC50 values of the compounds of the present disclosure (including the compounds in Table 1, and compounds of examples) were measured using the Meilun Cell Counting Kit-8 kit from Dalian Meilun Biotech Co., Ltd. Assay details are as follows: tumor cells were seeded in a 96-well plate at a density listed in Table A2. After 24h, 100 µL of the inoculated cells were treated with 0.5µL of the compounds of the present disclosure (including the compounds in Tables 1 and 2, and compounds of examples) at 10 different successively decreasing concentrations (starting at the highest concentration of 10µM; 5-fold serial dilutions). After the cells were treated with the compounds of the present disclosure for a period of time, the cell viability detection reagent was added to the culture medium for cell viability assessment according to the instructions provided with the CCK-8 kit. […] The growth inhibition of the compounds of the present disclosure on cells was plotted by Prism Graphpad software, and the IC50 values of the compounds of the present disclosure were calculated therefrom. […] Seeding protocol and treatment time for tumor cells

The subject of assay [2] is PC-9. The experiment in a line: CCK-8 proliferation, PC-9. The following applies: read-out: Inhibitory activity (IC50) on tumor cell proliferation, PC-9. The essentials:
(§3)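 CCK-8 viability readout; IC50 from growth-inhibition curve fitting. Cells plated, dosed 24h later with a 10-point series, top 10µM, 5-fold steps. Culture at 37°C, 5% CO2.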

The subject of assay [3] is H1975-1µM Osimertinib cells. The experiment in a line: CCK-8 proliferation, osimertinib-resistant H1975 cells. Here is the method:
as §1, §2

The test system of assay [4] is H1975. In words: CCK-8 proliferation, NCI-H1975 (H1975). The following applies: read-out: Inhibitory activity (IC50) on tumor cell proliferation, H1975. The procedure, abridged: as §3
Assay [5] deals with EGFR. In words: Western blot degradation of EGFR (H1975 Cell). Conditions: Table D2. The essentials: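 Degradation is assessed by immunoblotting lysates of treated cells. Target bands are quantified by grayscale and normalised to an internal control, so degradation rate equals 100% minus % remaining.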
A general note: A western blot detects proteins with antibodies after separation by electrophoresis.

The mark [6] stands for this setting: Homo sapiens, HCC827, CCK-8, 96 hours.
Setting [7] is: Homo sapiens, PC-9, CCK-8, 96 hours.
[8] abbreviates: Homo sapiens, NCI-H1975, CCK-8, osimertinib-resistant H1975 cells obtained by treating H1975 cells with 1 µM Osimertinib for 3 months, read-out: Inhibitory activity (IC50) on tumor cell proliferation, H1975-1µm Osimertinib.
Setting [9] is: Homo sapiens, NCI-H1975, CCK-8, 96 hours.

Like-named read-outs stand apart in the source and are kept apart here.

On to `COc1cc(N2CCC(N(C)Cc3ccc(C4CCC(=O)NC4=O)cc3)CC2)c(C)cc1Nc1ncc(Br)c(Nc2ccc3nccnc3c2P(C)(C)=O)n1` (stereo not drawn) [GT-03930, 3-(4-(((1-(4-((5-bromo-4-((5-(dimethylphosphoryl)quinoxalin-6-yl)amino)pyrimidin-2-yl)amino)-5-methoxy-2-methylphenyl)piperidin-4-yl)(methyl)amino)methyl)phenyl)piperidine-2,6-dione], for which the IC50 in assay [1] (setting [6]) is 100 to 500 nM; in assay [2] (setting [7]), 100 to 500 nM; in assay [3] (setting [8]), 500 to 1000 nM; in assay [4] (setting [9]), 50 to 100 nM.

Consider `CN(Cc1cccc(NC2CCC(=O)NC2=O)c1)C1CCN(c2ccc(-c3cc(F)c4c(c3)C(=O)N(C(C(=O)Nc3nccs3)c3ncn5c3CCC5)C4)cc2)CC1` (stereo not drawn) [GT-05284, 2-(6,7-dihydro-5H-pyrrolo[1,2-c]imidazol-1-yl)-2-(6-(4-(4-((3-((2,6-dioxopiperidin-3-yl)amino)benzyl)(methyl)amino)piperidin-1-yl)phenyl)-4-fluoro-1-oxoisoindolin-2-yl)-N-(thiazol-2-yl)acetamide], for which the “Degradation of substrate protein EGFR (substrate protein remaining %)” value (shortened to “Degradation … (substrate protein remaining %)”) in assay [5] is on record as “A (A is defined as 0% ≤ substrate protein remaining % ≤ 80%)”. Further, the IC50 lay in the range of 500 to 1000 nM in assay [3] (setting [8]) and 1 to 10 nM in assay [4] (setting [9]).

Take `COc1cc(N2CCC(N(C)Cc3ccc(N4CCC(=O)NC4=O)cc3)CC2)c(C)cc1Nc1ncc(Br)c(Nc2ccc3nccnc3c2P(C)(C)=O)n1` [GT-05951, 1-(4-(((1-(4-((5-bromo-4-((5-(dimethylphosphoryl)quinoxalin-6-yl)amino)pyrimidin-2-yl)amino)-5-methoxy-2-methylphenyl)piperidin-4-yl)(methyl)amino)methyl)phenyl)dihydropyrimidine-2,4(1H,3H)-dione]: the IC50 fell in the range of 100 to 500 nM in assay [2] (setting [7]) and 500 to 1000 nM in assay [3] (setting [8]). The “Degradation … (substrate protein remaining %)” value in assay [5] is reported as “A (A is defined as 0% ≤ substrate protein remaining % ≤ 80%)”.

Consider `CC(C)n1nc(N2CCC(N(C)Cc3ccc(C4CCC(=O)NC4=O)cc3)CC2)c2cnc(Nc3ccnc(-c4cnn(S(=O)(=O)C5CC5)c4)n3)cc21` (stereo not drawn) [GT-06020, 3-(4-(((1-(6-((2-(1-(cyclopropylsulfonyl)-1H-pyrazol-4-yl)pyrimidin-4-yl)amino)-1-isopropyl-1H-pyrazolo[4,3-c]pyridin-3-yl)piperidin-4-yl)(methyl)amino)methyl)phenyl)piperidine-2,6-dione], for which the IC50 in assay [1] (setting [6]) was 100 to 500 nM; in assay [2] (setting [7]), 50 to 100 nM; in assay [3] (setting [8]), 100 to 500 nM.

For the compound `CC(C)n1nc(N2CCC(N3CCN(Cc4ccc(C5CCC(=O)NC5=O)cc4)CC3)CC2)c2cnc(Nc3ccnc(-c4cnn(S(=O)(=O)C5CC5)c4)n3)cc21` (stereo not drawn) [GT-06078, 3-(4-((4-(1-(6-((2-(1-(cyclopropylsulfonyl)-1H-pyrazol-4-yl)pyrimidin-4-yl)amino)-1-isopropyl-1H-pyrazolo[4,3-c]pyridin-3-yl)piperidin-4-yl)piperazin-1-yl)methyl)phenyl)piperidine-2,6-dione], the “Degradation … (substrate protein remaining %)” value in assay [5] is on record as “A (A is defined as 0% ≤ substrate protein remaining % ≤ 80%)”. The IC50 in assay [3] (setting [8]) fell in the range of 100 to 500 nM.

Take `CC(C)n1nc(N2CCC(N3CCN(Cc4cccc(N5CCC(=O)NC5=O)c4)CC3)CC2)c2cnc(Nc3ccnc(-c4cnn(S(=O)(=O)C5CC5)c4)n3)cc21` [GT-06080, 1-(3-((4-(1-(6-((2-(1-(cyclopropylsulfonyl)-1H-pyrazol-4-yl)pyrimidin-4-yl)amino)-1-isopropyl-1H-pyrazolo[4,3-c]pyridin-3-yl)piperidin-4-yl)piperazin-1-yl)methyl)phenyl)dihydropyr imidine-2,4(1H,3H)-dione]: the IC50 in assay [2] (setting [7]) and in assay [3] (setting [8]) was 500 to 1000 nM throughout.

As to `CC(C)n1nc(N2CCC(N3CCN(Cc4ccc(N5CCC(=O)NC5=O)nc4)CC3)CC2)c2cnc(Nc3ccnc(-c4cnn(S(=O)(=O)C5CC5)c4)n3)cc21` [GT-06082, 1-(5-((4-(1-(6-((2-(1-(cyclopropylsulfonyl)-1H-pyrazol-4-yl)pyrimidin-4-yl)amino)-1-isopropyl-1H-pyrazolo[4,3-c]pyridin-3-yl)piperidin-4-yl)piperazin-1-yl)methyl)pyridin-2-yl)dihydropyrimidine-2,4(1H,3H)-dione], the IC50 is 100 to 500 nM in assay [2] (setting [7]), 10 to 50 nM in assay [3] (setting [8]) and 100 to 500 nM in assay [4] (setting [9]).

Turning to `O=C1CCC(Nc2cccc(CN3CCN(c4ccc(-c5cc(F)c6c(c5)C(=O)N(C(C(=O)Nc5nccs5)c5ncn7c5CCC7)C6)cc4)CC3)c2)C(=O)N1` (stereo not drawn) [GT-06188, 2-(6,7-dihydro-5H-pyrrolo[1,2-c]imidazol-1-yl)-2-(6-(4-(4-(3-((2,6-dioxopiperidin-3-yl)amino)benzyl)piperazin-1-yl)phenyl)-4-fluoro-1-oxoisoindolin-2-yl)-N-(thiazol-2-yl)acetamide], the figures for the IC50 in assay [3] (setting [8]) and in assay [4] (setting [9]) were under 1 nM and 1 to 10 nM, respectively.

`O=C1CCN(c2ccc(CN3C[C@H]4C[C@@H]3CN4c3ccc(-c4cc(F)c5c(c4)C(=O)N(C(C(=O)Nc4nccs4)c4ncn6c4CCC6)C5)cc3)nc2)C(=O)N1` (stereo partly drawn) [GT-06190, 2-(6,7-dihydro-5H-pyrrolo[1,2-c]imidazol-1-yl)-2-(6-(4-((1R,4R)-5-((5-(2,4-dioxotetrahydropyrimidin-1(2H)-yl)pyridin-2-yl)methyl)-2,5-diazabicyclo[2.2.1]heptan-2-yl)phenyl)-4-fluoro-1-oxoisoindolin-2-yl)-N-(thiazol-2-yl)acetamide]: the “Degradation … (substrate protein remaining %)” value in assay [5] was “A (A is defined as 0% ≤ substrate protein remaining % ≤ 80%)”. The results for the IC50 in assay [3] (setting [8]) and in assay [4] (setting [9]) were 100 to 500 nM and 1 to 10 nM, respectively.

As for `O=C1CCC(Nc2cccc(CN3CCN(C4CCN(c5ccc(-c6cc(F)c7c(c6)C(=O)N(C(C(=O)Nc6nccs6)c6ncn8c6CCC8)C7)cc5)CC4)CC3)c2)C(=O)N1` (stereo not drawn) [GT-06247, 2-(6,7-dihydro-5H-pyrrolo[1,2-c]imidazol-1-yl)-2-(6-(4-(4-(4-(3-((2,6-dioxopiperidin-3-yl)amino)benzyl)piperazin-1-yl)piperidin-1-yl)phenyl)-4-fluoro-1-oxoisoindolin-2-yl)-N-(thiazol-2-yl)acetamide], the “Degradation … (substrate protein remaining %)” value in assay [5] is on record as “A (A is defined as 0% ≤ substrate protein remaining % ≤ 80%)”. The IC50 in assay [3] (setting [8]) was in the range of 50 to 100 nM; in assay [4] (setting [9]), 10 to 50 nM.

Turning to `O=C1CCN(c2ccc(CN3CCN(C4CCN(c5ccc(-c6cc(F)c7c(c6)C(=O)N(C(C(=O)Nc6nccs6)c6ncn8c6CCC8)C7)cc5)CC4(F)F)CC3)cn2)C(=O)N1` (stereo not drawn) [GT-06320, 2-(6,7-dihydro-5H-pyrrolo[1,2-c]imidazol-1-yl)-2-(6-(4-(4-(4-((6-(2,4-dioxotetrahydropyrimidin-1(2H)-yl)pyridin-3-yl)methyl)piperazin-1-yl)-3,3-difluoropiperidin-1-yl)phenyl)-4-fluoro-1-oxoisoindolin-2-yl)-N-(thiazol-2-yl)acetamide], the “Degradation … (substrate protein remaining %)” value in assay [5] is recorded as “A (A is defined as 0% ≤ substrate protein remaining % ≤ 80%)”. The IC50 was in the range of 500 to 1000 nM in assay [3] (setting [8]) and 1 to 10 nM in assay [4] (setting [9]).

Regarding `COc1cc(N2CCC(N3CCN(CCC#Cc4cccc5c4CN(C4CCC(=O)NC4=O)C5=O)CC3)CC2)ccc1Nc1ncc(Cl)c(Nc2ccccc2P(C)(C)=O)n1` (stereo not drawn) [HJM-561, reference compound], the IC50 in assay [1] (CCK-8, 96 hours) lay in the range of 500 to 1000 nM; in assay [2] (CCK-8, 96 hours), 100 to 500 nM; in assay [3] (CCK-8, osimertinib-resistant H1975 cells obtained by treating H1975 cells with 1 µM Osimertinib for 3 months, read-out: Inhibitory activity (IC50) on tumor cell proliferation, H1975-1µm Osimertinib) it was 1000 to 5000 nM; in assay [4] (CCK-8, 96 hours), 50 to 100 nM.

As to `C=CC(=O)Nc1cc(Nc2nccc(-c3cn(C)c4ccccc34)n2)c(OC)cc1N(C)CCN(C)C` [osimertinib, reference compound], the IC50 in assay [1] (Homo sapiens, HCC827, 96 h) is 10 to 50 nM; in assay [2] (Homo sapiens, PC-9, 96 h), 10 to 50 nM; in assay [3] (Homo sapiens, NCI-H1975, read-out: Inhibitory activity (IC50) on tumor cell proliferation, H1975-1µm Osimertinib), over 10000 nM; in assay [4] (Homo sapiens, NCI-H1975, 96 h), 100 to 500 nM.

These data come from patent EP4678638A1, “NEW E3 UBIQUITIN LIGASE LIGAND, PROTEIN DEGRADATION AGENT AND USE THEREOF” (priority 2023, dated 2024).
